The text below walks through data of US10118955B2, “C-terminal fragments of glucagon-like peptide-1 (GLP-1)” (The General Hospital Corporation, priority 2008, dated 2018).

For one test, the system named is white adipocytes. To be noted: Rodrigue-Way et al. 2007; cited from earlier work.
For a further test, the system named is CPT1 mRNA. As to the kind of experiment: liver mRNA levels by QPCR in mice infused with GLP-1(28-36)amide. In kind it is in vivo. To be noted: 28-36 infusion 3 weeks; for CPT1 mRNA/QPCR Fold Difference compared to LFD: normalized to LFD mice as 1.0, parentheses = down-regulation. Here is the method:
(§1) Mice were placed on VHFD or a LFD control diets at 6 weeks of age. Continuous infusion of GLP-1(28-36)amide, 6.5 nanomoles/24 hrs/KgBW via osmopumps was started at ten weeks of age and was continued for 3 weeks. Body weights were measured before and during these three weeks. Values are means and S.D.s of four mice in each group.
(§2) An examination of gene expression profiles in the livers of GLP-1(28-36)amide treated mice was performed. Measurements of mRNA levels by quantitative polymerase chain reaction (QPCR) in livers of mice given a very high fat diet (VHFD) or a normal low fat diet (LFD) for four weeks followed by subcutaneous osmopump infusions of either vehicle or GLP-1(28-36)amide for three additional weeks. Data in Table 2, below, show changes in mRNA levels in LFD and VHFD groups of mice comparing vehicle versus GLP-1(28-36)amide where vehicle is set at a value of 1.0. […] GLP-1(28-36)amide appears to regulate PEPCK, PPARg, CD36, SCD1, SREBP1c, FASN, and PPARa.

In another test the test system is ACOX mRNA. The description is as above. In kind it is in vivo. The note with it: 28-36 infusion 3 weeks; for ACOX mRNA/QPCR Fold Difference compared to LFD: normalized to LFD mice as 1.0, parentheses = down-regulation. As to the method: as §1, §2
The next test has as its system SREBP-1c mRNA. The description is as above. In kind it is in vivo. To be noted: 28-36 infusion 3 weeks; for SREBP-1c mRNA/QPCR Fold Difference compared to LFD: normalized to LFD mice as 1.0, parentheses = down-regulation. As to the method: as §1, §2
Another test has as its system FASN mRNA. Described as above. In kind it is in vivo. The note with it: 28-36 infusion 3 weeks. As to the method: as §1, §2
The subject of a further test is SCD-1 mRNA. The test is described as above. In kind it is in vivo. As to the method: as §1, §2
A further test deals with PPARα mRNA. The test is described as above. In kind it is in vivo. To be noted: 28-36 infusion 3 weeks; for PPARα mRNA/QPCR Fold Difference compared to LFD: normalized to LFD mice as 1.0, parentheses = down-regulation. Here is the method: as §1, §2
The next test concerns CD36 mRNA. The description is as above. The test is classed as in vivo. To be noted: 28-36 infusion 3 weeks; for CD36 mRNA/QPCR Fold Difference compared to LFD: normalized to LFD mice as 1.0, parentheses = down-regulation. Here is the method: as §1, §2
In a further test the test system is PPARγ mRNA. Described as above. The test is classed as in vivo. To be noted: 28-36 infusion 3 weeks; for PPARγ mRNA/QPCR Fold Difference compared to LFD: normalized to LFD mice as 1.0, parentheses = down-regulation. As to the method:
as §1, §2

Another test deals with PGC1α mRNA. The description is as above. In kind it is in vivo. To be noted: 28-36 infusion 3 weeks. As to the method:
as §1, §2

Test [1] relates to PEPCK (phosphopyruvate carboxykinase) mRNA. The description is as above. The test is classed as in vivo. The note with it: 28-36 infusion 3 weeks; for PEPCK mRNA/QPCR Fold Difference compared to LFD: normalized to LFD mice as 1.0, parentheses = down-regulation. Here is the method:
as §1, §2

Test [2] can be described thus: infusion in mice fed a very high fat diet: body weight, adipogenesis, food intake. In kind it is in vivo. To be noted: for weight gain: mice on VHFD (60% fat), continuous infusion 6.5 nanomoles/24 hrs/KgBW via osmopumps, 3 weeks. As to the method: as §1
Glucagon-like peptide-1 (GLP-1) is an insulinotropic peptide that stimulates glucose-dependent insulin secretion (Kieffer and Habener, Endocr Rev. 20(6):876-913 (1999)). […] The neutral endopeptidase, NEP 24.11 is proposed to be responsible for the degradation of GLP-1, much as the Dpp4 had been thought of as a peptide degrading enzyme for GLP-1 (Plamboeck et al., Diabetologia. 48(9):1882-90 (2005)). The carboxyl-terminal sequence of GLP-1, […]amide, GLP-1(28-36)amide, is a major peptide product of the cleavage of GLP-1 by NEP 24.11 (Hupe-Sodmann et al., Regul Pept. 58(3):149-56 (1995)). Therefore GLP-1(28-36)amide was infused into mice both fed a normal chow diet (LFD) and a very high fat diet (VHFD) for three weeks.

Test [3] has as its system phosphoACC (pACC, phospho-AcetylCoA carboxylase). As to the kind of experiment: liver ACC / phosphoACC protein expression after infusion. In kind it is in vivo. To be noted: mice fed a very high fat diet, infusion for three weeks. The text has this:
FIGS. 4A-4C are bar graphs showing regulation of PEPCK (4A) and ACC Protein Expression (both the phosphorylated (pACC) and unphosphorylated (ACC) forms (4B) in the presence and absence of the GLP-1(28-36) peptide, as well as the effect of the peptide on ratios of phosphorylated to unphosphorylated ACC (4C).
This is important since ACC is highly regulated in the liver and is the key enzyme responsible for the synthesis of malonyl CoA from AcetylCoA and is a precursor of fatty acid synthesis and a potent inhibitor of CPT1 (carnitine palmitoyl transferase 1), the rate limiting enzyme in the transport of fatty acids into the beta oxidation machinery of mitochondria. This means that GLP-1(28-36) is exerting an inhibition on fatty acid oxidation (beta oxidation). The increase in SCD1 expression in response to infusion of GLP-1(28-36)amide is consistent with an increase in ACC activity since SCD1 is believed to inhibit AMP kinase which is an inhibitor of ACC. The mechanism currently proposed for the prevention of weight gain by GLP-1(28-36)amide in mice fed a very high fat diet involves a dual effect of GLP-1(28-36)amide on adipose tissue to enhance lipolysis and fat burning and inhibit lipogenesis. The increased fatty acid cycling and hypertriglyceridemia enhances hepatic fatty acid oxidation with consequent coupled enhanced gluconeogenesis driven by the enhanced fat burning. […]

Test [4] concerns hepatic glucose production (gluconeogenesis). The note with it: Elahi et al. 2008; cited from earlier work.
The conditions of test [5]: Ban et al. 2008; cited from earlier work.
The subject of another test is 3T3-L1 adipocytes. As to the kind of experiment: lipolysis (glycerol release) in 3T3-L1 adipocytes. The test is classed as cell-based. The note with it: 1-30 nM on a background of 10 nM isoproterenol, 60 min. As to the method:
Preliminary studies on the effect of GLP-1(9-36) on lipolysis were also performed in isolated mouse hepatocytes and 3T3-L1 adipocytes. Glycerol release into the culture medium was used as a measure of active lipolysis, and isoproterenol serves as a known stimulator of lipolysis. In these experiments GLP-1(9-36)amide was added dose-wise (1-30 nM) on a background of 10 nM isoproterenol. Incubations were for 60 min.

Another test has as its system isolated hepatocytes. As to the kind of experiment: hepatic gluconeogenesis in isolated hepatocytes (preliminary studies). In kind it is cell-based. To be noted: high (micromolar) concentrations.
In the next test the target is GLP-1 GPCR (Homo sapiens, UniProt P43220). The note with it: (nM); cited from earlier work.
Where [6] appears, read: LFD mice, vehicle set at 1.0, parentheses = down-regulation.
[7] abbreviates: VHFD mice, VHFD vehicle set at 1.0, parentheses = down-regulation.
Setting [8] is: LFD mice, normalized to LFD mice as 1.0, parentheses = down-regulation.
Where [9] appears, read: high fat fed mice, infusion for three weeks.

Ends that are not written are not given here.

Sequence of GLP-1 GPCR (P43220 24-463): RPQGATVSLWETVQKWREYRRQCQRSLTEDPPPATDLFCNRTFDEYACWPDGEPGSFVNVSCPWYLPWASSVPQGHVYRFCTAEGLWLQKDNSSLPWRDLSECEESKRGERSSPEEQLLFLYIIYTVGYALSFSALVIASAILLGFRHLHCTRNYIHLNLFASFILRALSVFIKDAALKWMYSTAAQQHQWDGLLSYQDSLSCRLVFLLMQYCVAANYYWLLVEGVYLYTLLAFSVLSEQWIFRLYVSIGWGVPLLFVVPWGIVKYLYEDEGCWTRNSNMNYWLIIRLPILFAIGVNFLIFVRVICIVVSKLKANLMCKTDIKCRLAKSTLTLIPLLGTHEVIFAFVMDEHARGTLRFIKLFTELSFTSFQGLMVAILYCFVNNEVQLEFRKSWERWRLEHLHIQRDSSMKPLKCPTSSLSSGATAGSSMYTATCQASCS

As to `Cc1[nH]c2ccccc2c1C[C@@H](NC(=O)[C@@H](N)Cc1cnc[nH]1)C(=O)N[C@@H](C)C(=O)N[C@@H](Cc1c[nH]c2ccccc12)C(=O)N[C@H](Cc1ccccc1)C(=O)N[C@@H](CCCCN)C(N)=O` [hexarelin, H-W(Me)-A-W-F-Kamide], the “mitochondrial biogenesis and fat burning phenotype” value with white adipocytes is “promote mitochondrial biogenesis and a fat burning phenotype”.

Consider FIAWLVKGR-NH2 [28-36], for which the “CPT1 mRNA/QPCR Fold Difference compared to LFD” value in the test with CPT1 mRNA (LFD mice) is given as 1.2 fold; in the test with CPT1 mRNA (VHFD mice), 1.74 fold. Besides, the “CPT1 mRNA/QPCR Fold Difference compared to PEPTIDE (28-36)” value in the test on CPT1 mRNA (setting [6]) is given as 1.21 fold; with CPT1 mRNA (setting [7]) it was 1.02 fold. Besides, the “ACOX mRNA/QPCR Fold Difference compared to LFD” value in the test on ACOX mRNA (LFD mice) was determined as 1.4 fold; in the test on ACOX mRNA (VHFD mice), 1.2 fold. The “ACOX mRNA/QPCR Fold Difference compared to PEPTIDE (28-36)” value with ACOX mRNA (setting [6]) turned out to be 1.4 fold; with ACOX mRNA (setting [7]), 1.04 fold. Moreover, the “SREBP-1c mRNA/QPCR Fold Difference compared to LFD” value in the test on SREBP-1c mRNA (LFD mice) and in the test with SREBP-1c mRNA (VHFD mice) was 1 fold throughout. The entries for the “SREBP-1c mRNA/QPCR Fold Difference compared to PEPTIDE (28-36)” value with SREBP-1c mRNA (setting [6]) and in the test on SREBP-1c mRNA (setting [7]) were 1.1 fold and 1.3 fold, respectively. The “FASN mRNA/QPCR Fold Difference compared to LFD” value in the test on FASN mRNA (setting [8]) was 1 fold. For the same compound, the “FASN mRNA/QPCR Fold Difference compared to PEPTIDE (28-36)” value was found to be 1 fold with FASN mRNA (setting [6]) and 1.2 fold with FASN mRNA (setting [7]). Moreover, the SCD1 expression result with SCD-1 mRNA (in response to infusion of GLP-1(28-36)amide) was “increase”. Besides, the “SCD-1 mRNA/QPCR Fold Difference compared to PEPTIDE (28-36)” value in the test on SCD-1 mRNA (liver, VHFD mice, 28-36 infusion 3 weeks, VHFD vehicle set at 1.0, parentheses = down-regulation) is recorded as 3.05 fold. For the same compound, the results for the “PPARα mRNA/QPCR Fold Difference compared to LFD” value with PPARα mRNA (LFD mice) and in the test with PPARα mRNA (VHFD mice) were 1.2 fold and 1.9 fold, respectively. Further, the “PPARα mRNA/QPCR Fold Difference compared to PEPTIDE (28-36)” value with PPARα mRNA (setting [6]) was 1.2 fold; with PPARα mRNA (setting [7]), 1.35 fold. In addition, the “CD36 mRNA/QPCR Fold Difference compared to LFD” value with CD36 mRNA (LFD mice) worked out at 1.25 fold; in the test with CD36 mRNA (VHFD mice) it was 1.7 fold. Moreover, the “CD36 mRNA/QPCR Fold Difference compared to PEPTIDE (28-36)” value in the test with CD36 mRNA (setting [6]) is 1.25 fold; in the test with CD36 mRNA (setting [7]) it was 1.7 fold. Further, the figures for the “PPARγ mRNA/QPCR Fold Difference compared to LFD” value with PPARγ mRNA (LFD mice) and in the test with PPARγ mRNA (VHFD mice) were 1.54 fold and 2.2 fold, respectively. Also, the “PPARγ mRNA/QPCR Fold Difference compared to PEPTIDE (28-36)” value is 1.54 fold with PPARγ mRNA (setting [6]) and 1.4 fold in the test on PPARγ mRNA (setting [7]). For the same compound, the “PGC1α mRNA/QPCR Fold Difference compared to LFD” value with PGC1α mRNA (setting [8]) was 1.35 fold. Also, the “PGC1α mRNA/QPCR Fold Difference compared to PEPTIDE (28-36)” value was found to be 1.4 fold in the test on PGC1α mRNA (setting [6]) and 1.2 fold in the test on PGC1α mRNA (setting [7]). Besides, the “PEPCK mRNA/QPCR Fold Difference compared to LFD” value in test [1] (LFD mice) and in [1] (VHFD mice) was 1.6 fold each time. The results for the “PEPCK mRNA/QPCR Fold Difference compared to PEPTIDE (28-36)” value in test [1] (setting [6]) and in test [1] (setting [7]) were 1.6 fold and 1.5 fold, respectively. Moreover, in [2] (setting [9]), the adipogenesis result was “completely prevented”. Besides, the food intake entry in test [2] (setting [9]) is given as “without observable differences”. The weight gain entry in test [2] (listed as GLP-1(28-36)) is on record as “attenuates weight gain”; in test [2] (listed as GLP-1(28-36)amide), “completely prevented”. The “liver phosphoACC (pACC)” value in test [3] is “decrease”.

In the case of GLP-1(9-36)amide, the “hepatic glucose production (gluconeogenesis)” value in [4] was “inhibits”. In addition, the cardioprotective actions entry in test [5] is “exerts cardioprotective actions”. In the test with 3T3-L1 adipocytes, the “lipolysis (glycerol release into the culture medium)” value is “stimulates lipolysis in 3T3-L1 adipocytes in a dose dependent manner”. In addition, in the test on isolated hepatocytes, the “actions on hepatic gluconeogenesis” value is reported as “only weak actions”.

On to exendin-4, for which, on GLP-1 GPCR, the “binding affinity to the GLP-1 GPCR” value is “high affinity”.
